Test results reported in PubChem BioAssay (NCI).
Several values for one entry are separate records, joined by “and”; a condition that tells them apart may be missing. Identical values can stand only once.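 Five compound concentrations were applied to cells in 96-well plates for 48 hours; endpoints were derived by simple linear interpolation of the resulting dose-response curve. GI50: concentration for 50% inhibition of growth. At the TGI there is no net growth.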

Legend:
Experiment in all cases: inhibition of tumour cell growth, NCI panel, 48 h
A498 renal = tested on: A498 renal
A549 NSCLC = tested on: A549 NSCLC
HL-60(TB) leukemia = tested on: HL-60(TB) leukemia
HOP-62 NSCLC = tested on: HOP-62 NSCLC
K-562 leukemia = tested on: K-562 leukemia
MALME-3M melanoma = tested on: MALME-3M melanoma
MDA-MB-435 = tested on: MDA-MB-435
OVCAR-5 ovarian = tested on: OVCAR-5 ovarian
SF-539 CNS = tested on: SF-539 CNS
UACC-62 melanoma = tested on: UACC-62 melanoma

Row | SMILES | GI50 (A498 renal) | TGI (A498 renal) | GI50 (A549 NSCLC) | TGI (A549 NSCLC) | GI50 (HL-60(TB) leukemia) | TGI (HL-60(TB) leukemia) | GI50 (HOP-62 NSCLC) | TGI (HOP-62 NSCLC) | GI50 (K-562 leukemia) | TGI (K-562 leukemia) | GI50 (MALME-3M melanoma) | TGI (MALME-3M melanoma) | GI50 (MDA-MB-435) | TGI (MDA-MB-435) | GI50 (OVCAR-5 ovarian) | TGI (OVCAR-5 ovarian) | GI50 (SF-539 CNS) | TGI (SF-539 CNS) | GI50 (UACC-62 melanoma) | TGI (UACC-62 melanoma)
1 | COC(=O)[C@H](Cc1cn(C)cn1)NC(=O)[C@H](C)NC(=O)Nc1cc(C(F)(F)F)cc(C(F)(F)F)c1 | > 10 µM | > 10 µM | > 10 µM | > 10 µM | > 10 µM | > 10 µM | > 10 µM | > 10 µM | > 10 µM | > 10 µM | > 10 µM | > 10 µM | > 10 µM | > 10 µM | > 10 µM | > 10 µM | > 10 µM | > 10 µM | > 10 µM | > 10 µM
2 | CCOC(=O)Nc1cc2ccccc2c(N=Nc2ccccc2)c1O | – | > 100 µM | – | > 100 µM | – | > 100 µM | – | > 100 µM | – | > 100 µM | – | > 100 µM | – | > 100 µM | – | > 100 µM | – | 35.8 µM | – | > 100 µM
3 | CC(=O)OC1=CC2(OC(C)=O)CC(C)(C)C1C1C(=O)C=CC(=O)C12 (stereo not given) | – | > 100 µM | – | > 100 µM | – | > 100 µM | – | > 100 µM | – | > 100 µM | – | 38.9 µM | – | 53.4 µM | – | > 100 µM | – | > 71 µM | – | 56.7 µM
4 | NC1(Cc2ccc(Cl)cc2)CCN(c2ncnc3[nH]ccc23)CC1 | 0.546 µM | 4.58 µM | 5.02 µM | 21.6 µM | 3.39 µM | 17.6 µM | 3.63 µM | 17.2 µM | 4.66 µM | 19.4 µM | 6.3 µM | 21.6 µM | 4.67 µM | 18.1 µM | 8.33 µM | 43.6 µM | 2.21 µM | 12.6 µM | 5.85 µM | 20.4 µM
5 | COc1ccc2c(c1)-c1nn(CCCN(C)C)c3ccc([N+](=O)[O-])c(c13)N2 | 0.458 µM and 1.54 µM | 3.51 µM and 8.8 µM | 0.164 µM and 0.368 µM | 2.51 µM and 2.28 µM | 0.468 µM and 2.9 µM | 1.82 µM and 9.36 µM | 0.104 µM and 0.686 µM | 1.06 µM and 5.26 µM | 0.145 µM and 0.338 µM | 5.57 µM and 12.1 µM | 0.306 µM and 0.908 µM | 2.9 µM and 7.68 µM | 0.165 µM and 0.593 µM | 2.9 µM | 0.356 µM and 1.35 µM | 3.46 µM and 9.7 µM | 0.163 µM and 0.602 µM | 3.17 µM and 7.49 µM | 0.314 µM and 0.934 µM | 2.44 µM and 5.2 µM
6 | COc1ccc(CCN2CCC(CN(C)Cc3cnn(-c4ccccc4)c3)CC2)cc1 | 1.58 µM | 7.78 µM | 19.4 µM | 48.9 µM | 20 µM | 48.4 µM | 15.4 µM | 35.6 µM | 3.14 µM | 10.9 µM | 2.08 µM | 4.29 µM | 2.54 µM | 6.8 µM | 14.8 µM | 58.3 µM | 2.77 µM | 8.08 µM | 2.63 µM | 7.36 µM
7 | Cc1ccc(C2NC(=O)c3ccccc3N2)c(C)c1 (stereo not given) | – | 34.9 µM | – | > 100 µM | – | 1.61 µM | – | > 100 µM | – | 8.37 µM | – | > 69.1 µM | – | 1.19 µM | – | > 86.5 µM | – | 5.15 µM | – | > 100 µM
8 | CCCCCCNCc1cc(C(C)(C)C)cc(CNCCCCCC)c1O | 2.02 µM | 3.47 µM | 1.71 µM | 3.08 µM | 1.68 µM | 3.33 µM | 1.58 µM | 2.93 µM | 1.3 µM | 3.04 µM | 1.74 µM | 3.43 µM | 1.61 µM | 2.98 µM | 1.54 µM | 2.88 µM | 1.64 µM | 3.09 µM | 1.55 µM | 2.91 µM
9 | CN1CCN(c2nc(-c3csc(-c4cccs4)n3)cc3ccccc23)CC1 | 1.47 µM | 3.27 µM | 1.76 µM | 3.55 µM | 2.17 µM | 4.71 µM | 1.81 µM | 3.67 µM | 2.16 µM | 4.92 µM | 1.65 µM | 3.12 µM | 1.73 µM | 3.24 µM | 1.66 µM | 3.13 µM | 1.64 µM | 3.04 µM | 1.69 µM | 3.15 µM
10 | O=Cc1ccc(-c2ccc(-c3nc4ccccc4s3)cc2)s1 | > 100 µM | > 100 µM | > 100 µM | > 100 µM | 34.8 µM | > 100 µM | > 100 µM | > 100 µM | 37.1 µM | > 100 µM | 52.4 µM | > 100 µM | 56.2 µM | > 100 µM | > 100 µM | > 100 µM | 30.7 µM | > 100 µM | 22.2 µM | > 100 µM
11 | CC1(C)O[C@@H]2C[C@H]3[C@@H]4C[C@H](F)C5=CC(=O)C=C[C@]5(C)[C@@]4(F)[C@@H](O)C[C@]3(C)[C@]2(C(=O)CO)O1 | – | > 100 µM | – | > 100 µM | – | > 100 µM | – | > 100 µM | – | > 100 µM | – | > 100 µM | – | > 100 µM | – | > 100 µM | – | > 100 µM | – | > 100 µM
12 | CCC(C)C(=O)OCC(=O)c1ccc(-c2ccccc2)cc1 (stereo not given) | – | > 100 µM | – | > 100 µM | – | > 100 µM | – | > 100 µM | – | > 100 µM | – | > 100 µM | – | > 100 µM | – | > 100 µM | – | > 100 µM | – | > 100 µM
13 | NC(=O)c1sc(-n2cnc3cc(C(F)(F)F)ccc32)cc1OCc1ccccc1Br | > 25 µM | > 25 µM | > 25 µM | > 25 µM | > 25 µM | > 25 µM | 6.49 µM | > 16.9 µM | 24.7 µM | > 25 µM | > 16.2 µM | > 25 µM | > 16.5 µM | > 25 µM | > 25 µM | > 25 µM | 24.9 µM | > 25 µM | > 21.6 µM | > 25 µM
14 | C/C(=N\NC(=S)N1CCCCCC1)c1cccc2cccnc12 | – | 54.9 µM | – | > 100 µM | – | > 45.7 µM | – | > 70.7 µM | – | > 100 µM | – | > 61 µM | – | > 100 µM | – | > 100 µM | – | 5.65 µM | – | 6.53 µM
